Results taken from PubChem BioAssay (NCI).
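Where inhibition never reached the appropriate level, the endpoint shown equals the highest concentration tested. Otherwise, values were interpolated linearly from a five-concentration, 48-hour dose response in 96-well plates. TGI: total growth inhibition.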

Assays:
Experiment in all cases: NCI tumour cell line growth inhibition, 48 h
[1] = test system: NCI-H226 lung
[2] = test system: NCI-H522 lung
[3] = test system: SF-539 CNS
[4] = test system: HS 578T breast
[5] = test system: COLO 205 colon
[6] = test system: RPMI-8226 leukemia
[7] = test system: HT29 colon
[8] = test system: EKVX NSCLC
[9] = test system: 786-0 renal
[10] = test system: MOLT-4 leukemia
[11] = test system: HCT-15 colon
[12] = test system: NCI/ADR-RES ovarian
[13] = test system: HL-60(TB) leukemia
[14] = test system: HCC-2998 colon
[15] = test system: NCI-H460 lung
[16] = test system: UACC-62 melanoma
[17] = test system: SK-MEL-2 melanoma
[18] = test system: K-562 leukemia
[19] = test system: SK-MEL-5 melanoma
[20] = test system: SF-268 CNS
[21] = test system: UACC-257 melanoma
[22] = test system: SNB-19 CNS
[23] = test system: IGROV1 ovarian
[24] = test system: T-47D breast
[25] = test system: SF-295 CNS
[26] = test system: SW-620 colon
[27] = test system: U251 CNS
[28] = test system: SK-OV-3 ovarian
[29] = test system: OVCAR-5 ovarian
[30] = test system: TK-10 renal
[31] = test system: OVCAR-3 ovarian
[32] = test system: OVCAR-8 ovarian
[33] = test system: MCF7 breast
[34] = test system: PC-3 prostate
[35] = test system: A549 NSCLC
[36] = test system: MDA-N
[37] = test system: SN12C renal
[38] = test system: UO-31 renal
[39] = test system: HOP-62 NSCLC
[40] = test system: CAKI-1 renal
[41] = test system: KM12 colon
[42] = test system: HCT-116 colon
[43] = test system: RXF 393 renal
[44] = test system: ACHN renal
[45] = test system: MDA-MB-231 breast
[46] = test system: LOX IMVI melanoma
[47] = test system: DU-145 prostate
[48] = test system: NCI-H23 lung
[49] = test system: BT-549 breast
[50] = test system: OVCAR-4 ovarian
[51] = test system: M14 melanoma
[52] = test system: MDA-MB-435
[53] = test system: A498 renal
[54] = test system: SR leukemia
[55] = test system: SK-MEL-28 melanoma
[56] = test system: SNB-75 CNS

In the case of CCOc1ccc(NC(=S)/N=C/C(C(=O)Nc2ccccc2C)=C(\C)O)cc1, the TGI [1] is reported as > 100 µM, the TGI [2] is reported as > 100 µM and the TGI [3] is reported as > 100 µM. For the same compound, the TGI [4] was > 100 µM, the TGI [5] was > 100 µM and the TGI [6] was > 100 µM. For the same compound, the TGI [7] was > 100 µM, the TGI [8] was > 100 µM and the TGI [9] was > 100 µM. For the same compound, the TGI [10] was > 100 µM, the TGI [11] was > 100 µM and the TGI [12] was > 100 µM. For the same compound, the TGI [13] was > 100 µM, the TGI [14] was > 100 µM and the TGI [15] was > 100 µM. For the same compound, the TGI [16] was > 100 µM, the TGI [17] was > 100 µM and the TGI [18] was > 100 µM. The TGI [19] was > 100 µM, the TGI [20] was > 100 µM and the TGI [21] was > 100 µM. For the same compound, the TGI [22] was > 100 µM, the TGI [23] was > 100 µM and the TGI [24] was > 100 µM. For the same compound, the TGI [25] was > 100 µM, the TGI [26] was > 100 µM and the TGI [27] was > 100 µM. For the same compound, the TGI [28] was > 100 µM, the TGI [29] was > 100 µM and the TGI [30] was > 100 µM. For the same compound, the TGI [31] was > 100 µM, the TGI [32] was > 100 µM and the TGI [33] was > 100 µM. The TGI [34] was > 100 µM, the TGI [35] was > 100 µM and the TGI [36] was > 100 µM. For the same compound, the TGI [37] was > 100 µM, the TGI [38] was > 100 µM and the TGI [39] was > 100 µM. The TGI [40] was > 100 µM, the TGI [41] was > 100 µM and the TGI [42] was > 100 µM. For the same compound, the TGI [43] was > 100 µM, the TGI [44] was > 100 µM and the TGI [45] was > 100 µM. The TGI [46] was > 100 µM, the TGI [47] was > 100 µM and the TGI [48] was > 100 µM. For the same compound, the TGI [49] was > 100 µM, the TGI [50] was > 100 µM and the TGI [51] was > 100 µM. The TGI [52] was > 100 µM.

Cc1cccc(N2CCN(S(=O)(=O)c3ccc(Cl)cc3)C2=N)c1C was tested, and the TGI [1] was > 100 µM, the TGI [3] was > 100 µM and the TGI [5] was > 100 µM. The TGI [6] was > 100 µM, the TGI [7] was > 100 µM and the TGI [9] was > 100 µM. For the same compound, the TGI [10] was > 100 µM, the TGI [12] was > 100 µM and the TGI [16] was > 100 µM. For the same compound, the TGI [53] was > 100 µM, the TGI [18] was > 100 µM and the TGI [19] was > 100 µM. The TGI [54] was > 100 µM, the TGI [20] was > 100 µM and the TGI [21] was > 100 µM. The TGI [22] was > 100 µM, the TGI [23] was 99.3 µM and the TGI [24] was > 100 µM. The TGI [25] was > 100 µM, the TGI [26] was > 100 µM and the TGI [27] was > 100 µM. For the same compound, the TGI [28] was > 100 µM, the TGI [29] was > 100 µM and the TGI [30] was > 100 µM. The TGI [32] was > 100 µM, the TGI [33] was > 100 µM and the TGI [35] was > 100 µM. The TGI [36] was > 100 µM, the TGI [37] was > 100 µM and the TGI [38] was > 100 µM. The TGI [40] was > 100 µM, the TGI [41] was > 100 µM and the TGI [55] was > 100 µM. For the same compound, the TGI [42] was > 100 µM, the TGI [43] was > 100 µM and the TGI [44] was > 100 µM. The TGI [56] was > 100 µM, the TGI [45] was > 100 µM and the TGI [47] was > 100 µM. The TGI [48] was > 100 µM, the TGI [49] was > 100 µM and the TGI [51] was > 100 µM. The TGI [52] was > 100 µM.
